Laboratory results taken from patent US20230338539A1, “METHOD OF TREATING DIFFICULT TO ACCESS TUMORS WITH PHOTOACTIVATED CANCER THERAPY” (priority 2020, published 2023).

Key:
4T1 = assay: UV light activated psoralen, Cell-Titer-Glo Luminescence Cell Viability Assay (FIG. 3A); type: cell-based, murine; conditions: psoralen 40 μM; UV light 0, 0.25, 0.5, 1.0 J/cm^2
Procedure: (§1) Metabolic cell viability was also assessed visually using Methylene blue staining and ATP-induced Luminescence imaging (Cell-Titer-Glo® Luminescence Cell Viability Assay). The luminescence imaging permitted investigation of the cytotoxicity of psoralen activated directly with a UV lamp, and in the absence of phosphors and x-ray radiation. […] N=4 for each cell line at each UV light condition (0, 0.25, 0.5, 1.0 J/cm^2). The psoralen concentration was 40 μM.

KP158B (sarcoma) = assay: as above; type: cell-based, murine; conditions: psoralen 40 μM; UV light 0, 0.25, 0.5, 1.0 J/cm^2
Procedure: as §1

[1] = test system: CT2A (murine malignant glioma); assay: as above; type: cell-based; conditions: psoralen 40 μM; UV light 0, 0.25, 0.5, 1.0 J/cm^2
Procedure: as §1

4T1-HER2 cells = conditions: multi-variable regression on 36 independent irradiation experiments
Procedure: Guava Annexin V flow cell cytometry was used to quantify cytotoxicity in 3 murine tumor cell lines (breast-4T1, glioma-CT2A, and sarcoma KP15B8). […] Cells were incubated in appropriate growing media and buffers before being trypsinized and plated evenly onto twelve (12) well plates for 24 hours. […] The plates were then irradiated with x-rays by placing the plate at a known distance from the x-ray source (e.g., 50 cm). After irradiation the cells were incubated on the plate for 48 hours prior to performing flow cytometry. For compatibility with 96-well Guava Nexin® assay, the remaining cells were again trypsinized (after the 48 hour incubation) and plated onto a 96-well plate. […]
Cells plated in 12-well plates, where individual wells in each plate may receive different experimental conditions (e.g. psoralen concentration), but the same x-ray dose (i.e. all wells in a given plate receive the same x-ray dose). The first metric is metabolically viable cell count (or cell viability) determined from the number of whole cells per well as determined using forward scattering (FSC). […] (All wells on a given plate receive the same dose.) The second metric is Annexin V (+) signal, which is the fraction of the metabolically viable cells which expressed a positive Annexin V signal as determined by flow cell cytometry, and include any cells advancing toward early or late apoptotic cell death. […]

[2] = test system: syngeneic 4T1-HER2 tumors; assay: In-vivo X-PACT trial on syngeneic tumors (FIG. 6); parameters: species or system BALB/c mice; conditions: psoralen (AMT) alone with x-ray, phosphors alone with x-ray; relative to in-vitro expectation
Procedure: There were 6-8 mice per arm, and the study was repeated a second time, yielding effective sample sizes of 12-16. […] In the separate psoralen and phosphor control arms (blue and red respectively), 5 μM psoralen (AMT) and 100 μg of phosphor where applied. A consistent x-ray irradiation technique was used for all arms (except saline control) which was 2 Gy delivered at 75 kVp by 30 mA in 3 minutes.

## O=c1ccc2cc3ccoc3cc2o1 [psoralen]
4T1
  effect of UV light activated psoralen on viable cells: reduce viable cells
KP158B (sarcoma)
  effect of UV light activated psoralen on viable cells: reduce viable cells
[1]
  effect of UV light activated psoralen on viable cells: reduce viable cells
4T1-HER2 cells
  effect on cytotoxicity (Annexin V signal) of component alone: neither psoralen nor phosphor alone had a strong effect on cytotoxicity
[2]
  component effect in control arms: slightly higher component effect
